According to the Kinase Knowledgebase extract (Sharma et al. 2016):

Target: PIK3CA (human) (UniProt P42336)
Experiment: Cell-Based Assay
Details: bt20

Chain of PIK3CA (human) (P42336 whole entry, looked up): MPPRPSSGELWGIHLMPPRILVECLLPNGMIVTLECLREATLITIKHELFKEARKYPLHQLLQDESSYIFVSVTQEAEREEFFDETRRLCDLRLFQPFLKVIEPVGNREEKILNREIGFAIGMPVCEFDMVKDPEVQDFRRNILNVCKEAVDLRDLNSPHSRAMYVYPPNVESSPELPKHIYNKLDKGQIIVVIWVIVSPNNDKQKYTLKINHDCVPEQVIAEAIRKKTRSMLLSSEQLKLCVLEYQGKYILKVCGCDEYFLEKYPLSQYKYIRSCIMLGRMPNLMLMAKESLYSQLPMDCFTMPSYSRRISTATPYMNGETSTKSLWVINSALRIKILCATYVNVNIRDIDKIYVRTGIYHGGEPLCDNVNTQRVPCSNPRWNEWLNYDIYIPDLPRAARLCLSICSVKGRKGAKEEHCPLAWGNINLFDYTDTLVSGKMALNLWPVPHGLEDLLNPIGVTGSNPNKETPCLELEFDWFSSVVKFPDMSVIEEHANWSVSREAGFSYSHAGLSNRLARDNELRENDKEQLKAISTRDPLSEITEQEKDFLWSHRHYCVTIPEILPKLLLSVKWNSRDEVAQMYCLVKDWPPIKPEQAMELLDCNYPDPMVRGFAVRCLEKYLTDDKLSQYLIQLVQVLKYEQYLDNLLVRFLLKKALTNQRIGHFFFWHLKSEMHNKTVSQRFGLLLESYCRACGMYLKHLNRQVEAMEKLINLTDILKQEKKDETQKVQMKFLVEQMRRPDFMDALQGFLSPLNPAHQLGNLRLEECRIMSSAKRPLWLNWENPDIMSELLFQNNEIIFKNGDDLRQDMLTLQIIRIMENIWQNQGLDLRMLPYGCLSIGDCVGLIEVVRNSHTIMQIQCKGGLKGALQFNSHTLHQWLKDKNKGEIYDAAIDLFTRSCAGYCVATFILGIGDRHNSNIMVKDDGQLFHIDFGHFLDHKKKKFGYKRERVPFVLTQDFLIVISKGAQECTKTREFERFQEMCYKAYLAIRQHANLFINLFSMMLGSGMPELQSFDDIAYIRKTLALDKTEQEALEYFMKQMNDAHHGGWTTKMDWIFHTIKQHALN

IC50	Structure (SMILES)
0.0439 µM	COc1ncc(-c2ccc3ncc4[nH]c(=O)n(-c5ccc(C(C)(C)C#N)cc5)c4c3n2)cn1
0.0117 µM	CCN1CCC(n2c(=O)n(C)c3cnc4ccc(-c5cnc6ccccc6c5)nc4c32)CC1
0.00459 µM	CC(=O)N1CCC(n2c(=O)n(C)c3cnc4ccc(-c5cnc6ccccc6c5)nc4c32)CC1
0.0989 µM	COc1ncc(-c2ccc3ncc4c(c3n2)n(C2CCOCC2)c(=O)n4C)cn1
0.00807 µM	COC(=O)N1CCC(n2c(=O)n(C)c3cnc4ccc(-c5cnc6ccccc6c5)nc4c32)CC1
0.107 µM	Cn1cc(-c2ccc3ncc4c(c3n2)n([C@H]2CC[C@H](O)CC2)c(=O)n4C)cn1
0.0676 µM	CN(C)c1ccc(-c2ccc3ncc4[nH]c(=O)n(-c5ccc(C(C)(C)C#N)cc5)c4c3n2)cn1
0.0246 µM	CN(C)c1ccc(-c2ccc3ncc4c(c3n2)n(C2CCNCC2)c(=O)n4C)cn1
0.0263 µM	COc1ncc(-c2ccc3ncc4c(c3n2)n([C@H]2CC[C@H](OCCO)CC2)c(=O)n4C)cn1
0.029 µM	CN(C)c1ccc(-c2ccc3ncc4c(c3n2)n(C2CCOCC2)c(=O)n4C)cn1
0.0107 µM	Cn1c(=O)n([C@H]2CC[C@H](OCCO)CC2)c2c3nc(-c4cnc5ccccc5c4)ccc3ncc21
0.0414 µM	Cc1ccc(-c2ccc3ncc4c(c3n2)n(C2CCN(c3ncccn3)CC2)c(=O)n4C)cn1
0.0358 µM	CN(C)c1ccc(-c2ccc3ncc4c(c3n2)n(C2CCN(C(N)=O)CC2)c(=O)n4C)cn1
0.0183 µM	Cn1c(=O)n(C2CCOCC2)c2c3nc(-c4cn[nH]c4)ccc3ncc21
0.0228 µM	Cc1ccc(-c2ccc3ncc4c(c3n2)n(C2CCN(C)CC2)c(=O)n4C)cn1
0.0272 µM	COc1ncc(-c2ccc3ncc4c(c3n2)n(C2CCN(C(=O)CO)CC2)c(=O)n4C)cn1
3.21 µM	Cn1c(=O)n(C2CCNCC2)c2c3nc(-c4cnn(CCO)c4)ccc3ncc21
0.0973 µM	Cn1cc(-c2ccc3ncc4[nH]c(=O)n(-c5ccc(C(C)(C)C#N)cc5)c4c3n2)cn1
0.0185 µM	Cc1ccc(-c2ccc3ncc4c(c3n2)n([C@H]2CC[C@H](O)CC2)c(=O)n4C)cn1
0.0294 µM	CC(C)C(=O)N1CCC(n2c(=O)n(C)c3cnc4ccc(-c5cnc6ccccc6c5)nc4c32)CC1
0.0464 µM	Cn1c(=O)n([C@H]2CC[C@H](N)CC2)c2c3nc(-c4cnc5ccccc5c4)ccc3ncc21

IC50	Structure (SMILES)
0.197 µM	COc1ncc(-c2ccc3ncc4[nH]c(=O)n(-c5ccc(C(C)(C)C#N)cc5)c4c3n2)cc1F
0.0294 µM	C[C@@H](O)C(=O)N1CCC(n2c(=O)n(C)c3cnc4ccc(-c5cnc6[nH]ncc6c5)nc4c32)CC1
0.428 µM	Cc1ccc(-c2ccc3ncc4c(c3n2)n(C2CCOCC2)c(=O)n4CCO)cn1
0.116 µM	Cn1cc(-c2ccc3ncc4c(c3n2)n(-c2ccc(C(C)(C)C#N)cc2)c(=O)n4C)cn1
0.0815 µM	CNC(=O)Nc1ccc(-c2ccc3ncc4c(c3n2)n(C2CCN(C(=O)[C@H](C)O)CC2)c(=O)n4C)cc1
0.0318 µM	COCCN1CCC(n2c(=O)n(C)c3cnc4ccc(-c5ccc(N(C)C)nc5)nc4c32)CC1
0.0273 µM	Cc1ccc(-c2ccc3ncc4c(c3n2)n(C2CCOCC2)c(=O)n4C)cn1
2.58 µM	CC(=O)N1CCC(n2c(=O)n(C)c3cnc4ccc(-c5ccc(S(C)(=O)=O)cc5)nc4c32)CC1
0.00336 µM	Cn1c(=O)n([C@H]2CC[C@H](O)CC2)c2c3nc(-c4cnc(N)nc4)ccc3ncc21
0.017 µM	CCNC(=O)N1CCC(n2c(=O)n(C)c3cnc4ccc(-c5cnc6ccccc6c5)nc4c32)CC1
0.0182 µM	CN(C)c1ccc(-c2ccc3ncc4c(c3n2)n(C2CCN(CC(F)(F)F)CC2)c(=O)n4C)cn1
0.0346 µM	COc1ncc(-c2ccc3ncc4c(c3n2)n(C2CCN(C(C)=O)CC2)c(=O)n4C)cn1
0.00714 µM	COc1ccc(-c2ccc3ncc4c(c3n2)n(C2CCN(CC(N)=O)CC2)c(=O)n4C)cn1
0.00526 µM	CN(C)c1ccc(-c2ccc3ncc4c(c3n2)n([C@H]2CC[C@H](O)CC2)c(=O)n4C)cn1
0.0134 µM	Cn1c(=O)n(C2CCN(C(=O)OCc3ccccc3)CC2)c2c3nc(-c4cnc5ccccc5c4)ccc3ncc21
0.218 µM	C[C@H](O)C(=O)N1CCC(n2c(=O)n(C)c3cnc4ccc(-c5ccnc6[nH]ncc56)nc4c32)CC1
0.0356 µM	Cc1ccc(-c2ccc3ncc4c(c3n2)n(C2CCN(CCO)CC2)c(=O)n4C)cn1
0.0838 µM	C[C@H](CO)n1c(=O)n(C)c2cnc3ccc(-c4cnc5[nH]ncc5c4)nc3c21
0.018 µM	CN(C)CC(=O)N1CCC(n2c(=O)n(C)c3cnc4ccc(-c5cnc6ccccc6c5)nc4c32)CC1
0.0123 µM	COCC(=O)N1CCC(n2c(=O)n(C)c3cnc4ccc(-c5cnc(OC)nc5)nc4c32)CC1
